According to patent publication US8592403B2, “Diazepine and diazocane compounds as MC4 agonists” (Pfizer Limited, priority 2008, dated 2013):

Experiments:
[1] = target: T1, MC3 receptor (MC3R) (Homo sapiens, UniProt P41968); test: Nle4, D-Phe7-α-MSH inhibition at the MC3 receptor (competition binding, SPA, CHO-CRE MC3R membranes)
T1 construct: expressed in transfected cells; host or cells: CHO-CRE MC3R cells (membranes)
Text: Nle4, D-Phe7-α-MSH Inhibition at the MC3 Receptor
(§1) Nle4, D-Phe7-α-MSH is a stable analogue of melanocyte-stimulating hormone (MSH), which is an agonist at the MC3 receptor (MC3R). Compounds can be evaluated for their ability to inhibit Nle4, D-Phe7-α-MSH binding to membranes from cells expressing the MC3R using a competition binding assay versus [^125I] Nle4, D-Phe7-α-MSH.
(§2) Cells expressing the MC3R were subject to homogenisation and the membrane fragment isolated by differential centrifugation. CHO-CRE MC3R cell membranes were coupled to PVT-PEI-WGA SPA Beads type A for 2 hours, spun at 1000 RPM for 5 mins and suspended to a final assay concentration of 800 ug bead/ml (1.2 ug membrane, 40 ug bead per well). Bead/membrane mix was incubated with 0.06 nM [^125I] Nle4, D-Phe7-α-MSH and 11 half-log concentrations of competitor ligand, in duplicate, in a total volume of 50 μl buffer per well (25 mM HEPES, 1 mM MgCl2, 2.5 mM CaCl2, 1% Pluronic F68, 1 complete EDTA protease inhibitor tablet/50 ml pH7). Non-specific binding was determined by the inclusion of 100 nM SHU9119. The reaction was initiated by the addition of bead/membranes and plates were incubated at room temperature for 12 hours (the first hour on a plate shaker), after which the amount of radioactivity present was determined using a Wallac plate counter. Ki values were determined by data analysis using appropriate software.

[2] = In vitro metabolism rate determination, human liver microsome (HLM) assay; assay type: in vitro ADME; details: human, liver microsomes, read-out: HLM: Clint, app
Text: In Vitro Metabolism Rate Determination (Human Liver Microsome (HLM); Rat Liver Microsome (RLM) Assay)
Many drugs are metabolised by the cytochrome P450 mono-oxygenase system. This enzyme is found in high concentrations in the liver and is bound to the endoplasmic reticulum of the hepatocyte. The enzyme system can be obtained in semi-purified state by the preparation of the hepatic microsomal fractions. Determining a compound's in vitro half-life in such a system provides a useful indicator of metabolic stability.
Methodology for In Vitro Rate Determination Using Hepatic & Supermix Microsomes
The method outlined below is for a total incubation volume of 1.5 ml.
1. The following mixture is prepared in a test tube:
2. Defrost microsomes at room temperature and add sufficient microsomes to give a final concentration of 0.5 nmol cytochrome P450/ml of incubation e.g. for a 1.5 ml incubation, the volume of microsomes to be added is:
3. Add sufficient MilliQ water to give a total incubation volume of 1.425 ml.
6. Add substrate to the incubation. The substrate should be at an initial concentration of 1 μM. The volume of substrate required in the remaining 1.162.5 ml incubation is calculated as follows: […]
8. Pre-incubate the tube containing the incubation mix, also positive control and no cofactor tubes in the thermostatically controlled shaking water bath set at 37° C. for approx 5 min.
9. Add NADP to initiate reaction (75 μl to each 1.162.5 ml incubation mix, 12.5 μl to positive control tube and 5 μl to no substrate tube) and take first time point immediately. The PNA positive control, no cofactor control and no substrate tubes are incubated for the total incubation time.
10. Remove 100 μl aliquots up to 9 different sampling points from 0 to 60 min (usually 0, 3, 5, 10, 15, 20, 30, 45 & 60 min) and terminate reaction. Longer incubation times can be used, but, after 120 min the microsomes deteriorate. The reaction may be terminated by addition of organic solvent, acid or base. At the end of the incubation process the no cofactor and no substrate controls in a similar manner i.e. terminate with the same reagent.
11. Analyse samples (including no cofactor and no substrate control) by a specific assay for the substrate to determine the disappearance kinetics.
Data obtained using the procedure described above can be quantified in terms of the substrates in vitro intrinsic clearance (Clint). Providing that the substrate concentration is below Km, the metabolism should be 1st order giving a log-linear plot of substrate disappearance with time.
The gradient of this line is the first order rate constant (k) for the substrate disappearance and is determined by regression analysis. This rate constant can be converted to the half-life according to the following equation.
Alternatively the rate constant can be converted to an intrinsic clearance (Clint) according to the following equation:— Clint(μl/min/mg)=(k/protein concentration in incubation (mg/ml))*1000

[3] = target: T2, MC4 receptor (MC4R) (Homo sapiens, UniProt P32245); test: Nle4, D-Phe7-α-MSH inhibition at the MC4 receptor (competition binding, SPA, CHO-CRE MC4R membranes)
T2 construct: expressed in transfected cells; host or cells: CHO-CRE MC4R cells (membranes)
T2 sequence (P32245 whole entry): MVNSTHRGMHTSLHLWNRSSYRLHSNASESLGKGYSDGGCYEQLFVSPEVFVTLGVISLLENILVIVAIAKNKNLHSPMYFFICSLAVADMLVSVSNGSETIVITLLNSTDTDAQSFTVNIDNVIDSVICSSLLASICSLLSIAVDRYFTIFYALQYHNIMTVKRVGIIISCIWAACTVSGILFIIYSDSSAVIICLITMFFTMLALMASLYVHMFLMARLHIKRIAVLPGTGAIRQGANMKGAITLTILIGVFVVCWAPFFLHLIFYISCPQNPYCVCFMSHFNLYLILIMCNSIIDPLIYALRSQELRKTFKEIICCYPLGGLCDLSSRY
Text: Nle4, D-Phe7-α-MSH Inhibition at the MC4 Receptor
as §1, with “MC4” for “MC3”, “(MC4R).” for “(MC3R).”, “MC4R” for “MC3R”
as §2, with “MC4R” for “MC3R”, “min” for “mins”, “a” for “a final assay”, “300” for “800”, “(0.15” for “(1.2”, “15” for “40”

[4] = target: T3, CYP3A4 (Homo sapiens, UniProt P08684); test: High density DDI 3 μM cocktail screen in human liver microsomes, midazolam probe; assay type: in vitro ADME; details: human, liver microsomes, probe midazolam, read-out: % inhibition 3A4 @ 3 μM
T3 construct: utilizes human liver microsomes together with isoform-specific clinical drug probes; from tissue; host or cells: human liver microsomes
T3 sequence (P08684 whole entry, canonical isoform): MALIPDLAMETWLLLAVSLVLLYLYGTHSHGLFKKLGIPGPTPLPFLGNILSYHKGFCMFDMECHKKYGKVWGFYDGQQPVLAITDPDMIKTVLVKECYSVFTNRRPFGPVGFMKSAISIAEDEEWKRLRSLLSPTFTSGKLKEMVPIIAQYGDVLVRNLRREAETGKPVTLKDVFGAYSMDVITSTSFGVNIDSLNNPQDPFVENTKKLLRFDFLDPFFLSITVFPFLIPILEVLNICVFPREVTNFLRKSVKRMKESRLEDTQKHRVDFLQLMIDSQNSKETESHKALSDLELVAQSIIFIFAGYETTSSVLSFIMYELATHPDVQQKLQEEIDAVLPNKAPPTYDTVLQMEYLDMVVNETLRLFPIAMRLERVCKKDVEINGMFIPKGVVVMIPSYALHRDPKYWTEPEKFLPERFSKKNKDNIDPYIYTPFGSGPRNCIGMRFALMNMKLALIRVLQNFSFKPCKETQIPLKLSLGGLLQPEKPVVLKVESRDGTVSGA
Method: High Density Drug-Drug Interactions (DDI) 3 μM Cocktail Screen
A drug interaction is a situation in which a substance affects the activity of another drug, i.e. the effects are increased or decreased, or together they produce a new effect that neither produces on its own. Drug interactions may be the result of various processes but a relatively common one is where one drug affects the pharmacokinetics of another by inhibiting the cytochrome P450 that metabolises it. Because of the importance of these phenomena, assessment of the DDI potential for new chemical entities (NCEs) is considered important early on in the drug discovery process.
The DDI cocktail screen in human liver microsomes (HLM) is run in a fully automated fashion and the aim of the screen is to provide a single-point assessment of the DDI potential of new chemical entity (NCE; tested at […]) against the 4 primary cytochrome P450 enzymes, 1A2, 2D6, 2C9 and 3A4.
The substrate cocktail approach for P450 DDI utilizes human liver microsomes together with isoform-specific clinical drug probes and permits the simultaneous measurement of the inhibition of P450 1A2, 2C9, 2D6 & 3A4 activities in a single incubation. This is run in high throughput with simultaneous detection of metabolites by LC-MS/MS. This method has been thoroughly tested and evaluated using standard compounds.
Appearance of the metabolite of each substrate is measured over time in the presence and absence of the NCE (test compound/inhibitor) at a concentration of 3 μM. The compounds are assessed for their inhibitory potential as a percentage value and interpreted using the following scheme.

[5] = target: MC4 receptor (Homo sapiens, UniProt P32245); test: MC4 EC50 functional potency (protocol E of US2005/0176772 / WO 2005/077935); assay type: cell-based
Sequence of MC4 receptor (P32245 whole entry): as the sequence (P32245 whole entry) above
Method: The compounds of formula (I) of the present invention have utility as MCR4 agonists in the treatment of various disease states.
MC5 and MC4 EC50 activity was determined as described by assay protocols D and E, respectively, in US2005/0176772 (pages 28-30).

T1 sequence (P41968 whole entry): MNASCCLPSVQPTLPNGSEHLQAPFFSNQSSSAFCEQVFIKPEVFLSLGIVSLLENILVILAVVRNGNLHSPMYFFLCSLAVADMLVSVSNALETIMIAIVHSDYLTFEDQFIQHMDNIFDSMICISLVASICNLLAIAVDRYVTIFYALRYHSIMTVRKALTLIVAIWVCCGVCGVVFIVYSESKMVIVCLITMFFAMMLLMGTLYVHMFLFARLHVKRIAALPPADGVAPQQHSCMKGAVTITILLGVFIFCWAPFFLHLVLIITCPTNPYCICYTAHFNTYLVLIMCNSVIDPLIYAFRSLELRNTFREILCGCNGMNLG

Compound | Ki [1] [nM] | microsomal CLint at 1 μM [2] [µL/min/mg] | Ki [3] [nM] | inhibition at 3 µM [4] [%] | EC50 [5] [nM]
COc1ccc([C@@H]2CN(c3ccc(Cl)nn3)C[C@H]2C(=O)N2CCCC(c3ccc(Cl)cc3)N(S(C)(=O)=O)CC2)c(F)c1 (stereo partly drawn) [Example 108, [5-(4-chlorophenyl)-4-(methylsulfonyl)-1,4-diazocan-1-yl]-[(3S,4R)-1-(6-chloro-pyridazine-3-yl)-4-(2-fluoro-4-methoxyphenyl)-pyrrolidin-3-yl]-methanone] | 875 | 59 | 180 | 63.5 | 123
COC(=O)N1CCN(C(=O)[C@@H]2CN(c3ccc(=O)n(C)n3)C[C@H]2c2ccc(OC)cc2F)CCCC1c1ccc(Cl)cc1 (mixture of isomers) [Example 116] | 573 | 12 | 24.3 | 75 | 3.6
COc1ccc([C@@H]2CN(c3cccnn3)C[C@H]2C(=O)N2CCC(c3ccc(Cl)cc3)N(C(C)=O)CC2)c(F)c1 (mixture of isomers) [Example 93] | 4900 | 29.3 |  | 18.9 | 14.5
COc1ccc([C@@H]2CN(C(C)(C)C)C[C@H]2C(=O)N2CCCC(c3ccc(Cl)cc3)N(S(C)(=O)=O)CC2)c(F)c1 (mixture of isomers) [Example 92] | 17900 | 32.4 | 1770 | 33.5 | 274
COc1ccc([C@@H]2CN(c3cccnn3)C[C@H]2C(=O)N2CCC(c3ccc(Cl)cc3)N(S(C)(=O)=O)CC2)c(F)c1 (mixture of isomers) [Example 94] | 6690 | 78.1 |  | 46.6 | 25.6
CCCC(=O)N1CCN(C(=O)[C@@H]2CN(C(C)(C)C)C[C@H]2c2ccc(F)cc2F)CCCC1c1ccccc1 (mixture of isomers) [Example 104, 1-{[(3S,4R)-1-tert-butyl-4-(2,4-difluorophenyl)pyrrolidin-3-yl]carbonyl}-4-butyryl-5-phenyl-1,4-diazocane] | 9080 | 69.2 | 583 | 48 | 18
CC1(C(=O)N2CCN(C(=O)[C@@H]3CN(C(C)(C)C)C[C@H]3c3ccc(F)cc3F)CCC[C@H]2c2ccc(Cl)cc2)CC1 [Example 60, 1-{[(3S,4R)-1-tert-butyl-4-(2,4-difluorophenyl)pyrrolidin-3-yl]carbonyl}-5S-(4-chlorophenyl)-4-(1-methylcyclopropylcarbonyl)-1,4-diazocane] |  | 31.1 | 90.9 | 44.9 | 4.81
COc1ccc([C@@H]2CN(C(C)(C)C)C[C@H]2C(=O)N2CCC[C@@H](c3ccc(Cl)cc3)N(C(=O)C3CC(F)(F)C3)CC2)c(F)c1 [Example 62] |  |  | 3660 | 0 | 18.4
CS(=O)(=O)N1CCN(C(=O)[C@@H]2CN(c3ccc(C#N)nn3)C[C@H]2c2ccc(C#N)cc2)CCCC1c1ccc(Cl)cc1 (mixture of isomers) [Example 87] | 2150 |  | 927 | 50 | 168
COC(=O)N1CCN(C(=O)[C@@H]2CN(c3ccc(C#N)nn3)C[C@H]2c2ccc(F)cc2F)CCC[C@H]1c1ccc(Cl)cc1 [Example 55] | 154 | 9.75 |  | 70.6 | 5.16
CC(C)(C)N1C[C@@H](C(=O)N2CCC[C@@H](c3ccc(Cl)cc3)N(C(=O)CC3CC3)CC2)[C@H](c2ccc(F)cc2F)C1 [Example 65] | 6860 | 23.1 |  |  | 16.6
CC(C)(C)N1C[C@@H](C(=O)N2CCC[C@@H](c3ccc(Cl)cc3)N(C(=O)C3CC3)CC2)[C@H](c2ccc(F)cc2F)C1 [Example 7] | 10100 | 26.2 |  |  | 11.9
COC(=O)N1CCN(C(=O)[C@@H]2CN(c3cccnn3)C[C@H]2c2ccc(OC)cc2F)CCC1c1ccc(Cl)cc1 (mixture of isomers) [Example 95] | 4040 | 41.7 |  | 41.9 | 8.18
COC(=O)N1CCN(C(=O)[C@@H]2CN(c3ccc4nncn4n3)C[C@H]2c2ccc(Cl)cn2)CCC[C@@H]1c1ccc(Cl)cc1 [Example 51] | 212 |  |  | 75.2 | 3.29
